Where “and” joins values, the source holds several entries; their conditions need not be identical. Identical values can stand only once.
How the values were obtained:
SARS-CoV-2 [1] = test: (§1) Functional immunofluorescence assay to measure dose dependent changes in antiviral-drug inhibitory efficacy against hCoV-19/USA-WA1/2020 in HeLa-ACE2 cells which are seeded prior to drug treatment, then infected with hCoV-19/USA-WA1/2020. Cells are fixed with 10 % formaldehyde, washed with PBS, permeabilized with permeabilization buffer, then washed with wash buffer. The cells are incubated with nucleoprotein primary antibody IC7C7. Following primary staining, cells are washed with wash buffer and incubated in a solution of with Alexa fluor 488 and DAPI. Infected and uninfected cells are visualized and analyzed by Gen5 software. The assay has been performed by Icahn School of Medicine at Mount Sinai.; type: organism-based, Homo sapiens
SARS-CoV-2 [2] = test: as §1, with “iPSC-Pneumocyte” for “HeLa-ACE2”, “to” for “to drug”; type: organism-based, Homo sapiens
[3] = tested on: Middle East respiratory syndrome-related coronavirus; test: microbe, parasite or virus in culture; type: functional, organism-based, Chlorocebus sabaeus, VeroE6/TMPRSS2
[4] = Severe acute respiratory syndrome coronavirus 2, Pneumocyte
[5] = Severe acute respiratory syndrome coronavirus 2, HeLa-ACE2
[6] = Middle East respiratory syndrome-related coronavirus, VeroE6/TMPRSS2

CC(C)[C@@H](Nc1ncnc2[nH]ccc12)c1ccc2c(c1)S(=O)(=O)CCC2
EC90 (SARS-CoV-2 [1]; Severe acute respiratory syndrome coronavirus 2, HeLa-ACE2, Baseline response 0 %, Hill slope -1.838, Maximum measured 112.988 %, Maximum response 100 %, Minimum measured 76.031 %, R squared 0.586): > 50 µM | EC90 (SARS-CoV-2 [1]; Severe acute respiratory syndrome coronavirus 2, HeLa-ACE2, Baseline response 0 %, Hill slope -2.172, Maximum measured 117.108 %, Maximum response 100 %, Minimum measured 66.698 %, R squared 0.616): > 20 µM | EC50 (SARS-CoV-2 [1]; hela-ace2): > 50 µM | EC50 (SARS-CoV-2 [2]; [4]): > 50 µM | EC90 (SARS-CoV-2 [2]; Severe acute respiratory syndrome coronavirus 2, Pneumocyte, Baseline response 0 %, Hill slope -1.893, Maximum measured 187.741 %, Maximum response 100 %, Minimum measured 35.01 %, R squared 0.158): > 50 µM | EC90 (SARS-CoV-2 [2]; Severe acute respiratory syndrome coronavirus 2, Pneumocyte, Maximum measured 138.005 %, Minimum measured 85.609 %): > 50 µM | EC50 (SARS-CoV-2 [2]; pneumocyte): 29.9 µM

CC(C)[C@@H](Nc1ncnc2[nH]c(C(=O)N[C@H]3CCN(C)C3)cc12)c1ccc2c(c1)S(=O)(=O)CCC2
EC50 (SARS-CoV-2 [1]; [5]): > 20 µM | EC90 (SARS-CoV-2 [1]; Severe acute respiratory syndrome coronavirus 2, HeLa-ACE2, Baseline response 0 %, Hill slope -0.107, Maximum measured 102.123 %, Maximum response 100 %, Minimum measured 84.181 %, R squared 0.016): > 20 µM | EC50 (SARS-CoV-2 [2]; [4]): > 50 µM | EC90 (SARS-CoV-2 [2]; Severe acute respiratory syndrome coronavirus 2, Pneumocyte, Baseline response 0 %, Hill slope -0.859, Maximum measured 114.501 %, Maximum response 100 %, Minimum measured 59.767 %, R squared 0.551): > 50 µM

CNC(=O)c1cc2c(N[C@@H](c3ccc4c(c3)OCCO4)C(C)C)ncnc2[nH]1
EC50 (SARS-CoV-2 [1]; [5]): > 50 µM | EC90 (SARS-CoV-2 [1]; Severe acute respiratory syndrome coronavirus 2, HeLa-ACE2, Baseline response 0 %, Hill slope -1.825, Maximum measured 114.293 %, Maximum response 100 %, Minimum measured 64.264 %, R squared 0.688): > 50 µM | EC50 (SARS-CoV-2 [2]; [4]): > 50 µM | EC90 (SARS-CoV-2 [2]; Severe acute respiratory syndrome coronavirus 2, Pneumocyte, Maximum measured 153.61 %, Minimum measured 91.144 %): > 50 µM

CC(C)[C@H](Nc1ncnc2[nH]c(-c3cnn(CC(N)=O)c3)cc12)c1ccc2c(c1)S(=O)(=O)CCC2
EC50 (SARS-CoV-2 [1]; [5]): > 20 µM | EC90 (SARS-CoV-2 [1]; Severe acute respiratory syndrome coronavirus 2, HeLa-ACE2, Baseline response 0 %, Hill slope 1.066, Maximum measured 108.399 %, Maximum response 100 %, Minimum measured 92.21 %, R squared 0.046): > 20 µM | EC50 (SARS-CoV-2 [2]; [4]): > 50 µM | EC90 (SARS-CoV-2 [2]; Severe acute respiratory syndrome coronavirus 2, Pneumocyte, Baseline response 0 %, Hill slope -0.706, Maximum measured 119.318 %, Maximum response 100 %, Minimum measured 70.174 %, R squared 0.133): > 50 µM

CCNC(=O)c1cc2c(N[C@@H](c3ccc4c(c3)OCCO4)C(C)C)ncnc2[nH]1
EC50 (SARS-CoV-2 [1]; [5]): > 20 µM | EC90 (SARS-CoV-2 [1]; Severe acute respiratory syndrome coronavirus 2, HeLa-ACE2, Baseline response 0 %, Hill slope -1.909, Maximum measured 113.12 %, Maximum response 100 %, Minimum measured 80.543 %, R squared 0.285): > 20 µM | EC90 (SARS-CoV-2 [1]; Severe acute respiratory syndrome coronavirus 2, HeLa-ACE2, Maximum measured 94.861 %, Minimum measured 54.623 %): > 20 µM | EC90 (SARS-CoV-2 [1]; Severe acute respiratory syndrome coronavirus 2, HeLa-ACE2, Maximum measured 122.873 %, Minimum measured 70.184 %): > 20 µM | EC50 (SARS-CoV-2 [2]; [4]): 41.1 µM | EC90 (SARS-CoV-2 [2]; Severe acute respiratory syndrome coronavirus 2, Pneumocyte, Baseline response 0 %, Hill slope -8.576, Maximum measured 136.848 %, Maximum response 100 %, Minimum measured 15.577 %, R squared 0.308): > 50 µM

CNCc1cc(-c2cc3c(N[C@@H](c4ccc5c(c4)S(=O)(=O)NCC5)C(C)C)ncnc3[nH]2)co1
EC50 (SARS-CoV-2 [1]; [5]): > 20 µM | EC90 (SARS-CoV-2 [1]; Severe acute respiratory syndrome coronavirus 2, HeLa-ACE2, Baseline response 0 %, Hill slope -0.236, Maximum measured 99.818 %, Maximum response 100 %, Minimum measured 81.688 %, R squared 0.12): > 20 µM | EC50 (SARS-CoV-2 [2]; [4]): 30.7 µM | EC90 (SARS-CoV-2 [2]; Severe acute respiratory syndrome coronavirus 2, Pneumocyte, Baseline response 0 %, Hill slope -1.273, Maximum measured 102.14 %, Maximum response 100 %, Minimum measured 30.967 %, R squared 0.783): > 50 µM

CC(C)[C@@H](Nc1ncnc2[nH]ccc12)c1ccc2c(c1)NC(=O)CO2
EC50 (SARS-CoV-2 [1]; [5]): > 50 µM | EC90 (SARS-CoV-2 [1]; Severe acute respiratory syndrome coronavirus 2, HeLa-ACE2, Baseline response 0 %, Hill slope -2.239, Maximum measured 123.573 %, Maximum response 100 %, Minimum measured 69.199 %, R squared 0.469): > 50 µM | EC50 (SARS-CoV-2 [2]; [4]): > 50 µM | EC90 (SARS-CoV-2 [2]; Severe acute respiratory syndrome coronavirus 2, Pneumocyte, Maximum measured 145.289 %, Minimum measured 92.172 %): > 50 µM

CC(C)[C@H](Nc1ncnc2[nH]c(-c3cnn(C)c3C#N)cc12)c1ccc2c(n1)OCCO2
EC90 (SARS-CoV-2 [1]; Baseline response 0 %, EC90 CI (lower) 0.11 uM, EC90 CI (upper) 0.158 uM, Hill slope -1.629, Maximum measured 105.242 %, Maximum response 100 %, Minimum measured 1.508 %, R squared 0.979): 1.96 µM | EC50 (SARS-CoV-2 [1]; [5]): 0.819 µM | EC90 (SARS-CoV-2 [1]; Severe acute respiratory syndrome coronavirus 2, HeLa-ACE2, Baseline response 0 %, EC90 CI (lower) 0.09 uM, EC90 CI (upper) 0.442 uM, Hill slope -1.557, Maximum measured 125.33 %, Maximum response 100 %, Minimum measured 4.425 %, R squared 0.913): 3.36 µM | EC50 (SARS-CoV-2 [1]; hela-ace2): 0.508 µM | EC50 [3, 6]: > 5 µM | EC90 [3, 6]: > 5 µM

CC(C)[C@H](Nc1ncnc2[nH]ccc12)c1ccc2c(c1)S(=O)(=O)CCC2
EC50 (SARS-CoV-2 [1]; [5]): > 20 µM | EC90 (SARS-CoV-2 [1]; Severe acute respiratory syndrome coronavirus 2, HeLa-ACE2, Maximum measured 129.029 %, Minimum measured 103.942 %): > 20 µM | EC90 (SARS-CoV-2 [1]; Severe acute respiratory syndrome coronavirus 2, HeLa-ACE2, Maximum measured 158.705 %, Minimum measured 84.767 %): > 20 µM | EC90 [3]: > 20 µM | EC50 ([3]; veroe6/tmprss2): 2.42 µM and > 20 µM and > 5 µM
